Results from ChEMBL document CHEMBL1201862, “PubChem BioAssay data set” (2004).
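Growth conditions: 96-well plates. Treatment: test compound, 48 hours, 5 concentrations. Analysis: linear interpolation between bracketing concentrations; unreached endpoints set to highest concentration. Here, GI50 denotes the concentration required for 50% inhibition of growth.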 Activity calls are given as the source filed them. Cut-off read from the data, not from the text of the source: active = GI50 up to about 1.1 µM and inactive = higher.

Assays:
Assay in all cases: inhibition of tumour cell growth, NCI panel, 48 h
HCT-116 = system: HCT-116
HT-29 = system: HT-29
HOP-92 = system: HOP-92
OVCAR-3 = system: OVCAR-3
RPMI-8226 = system: RPMI-8226
SK-MEL-2 = system: SK-MEL-2
SK-OV-3 = system: SK-OV-3
HOP-62 = system: HOP-62
SK-MEL-5 = system: SK-MEL-5
OVCAR-5 = system: OVCAR-5
PC-3 = system: PC-3
NCI-H23 = system: NCI-H23
MCF7 = system: MCF7
UACC-62 = system: UACC-62
TK-10 = system: TK-10
A498 = system: A498
MDA-MB-231 = system: MDA-MB-231
MOLT-4 = system: MOLT-4
SF-539 = system: SF-539

Measured: GI50

Nc1nc(=S)n(-c2ccc(Cl)cc2)c2nc3ccccc3cc12
inactive: HCT-116 40.7 µM | HT-29 79.6 µM | HOP-92 9.82 µM | OVCAR-3 45 µM | RPMI-8226 59.6 µM | SK-MEL-2 49.7 µM | SK-OV-3 22.7 µM | HOP-62 55.8 µM | SK-MEL-5 51.8 µM | OVCAR-5 83.2 µM | PC-3 46.8 µM | NCI-H23 56.9 µM | MCF7 15.4 µM | UACC-62 40.9 µM | TK-10 28.7 µM | A498 > 100 µM | MDA-MB-231 60.5 µM

O=C1NC(N2CCOCC2)=N/C1=C\c1cccs1
inactive: HCT-116 > 100 µM | HT-29 > 100 µM | HOP-92 > 100 µM | OVCAR-3 > 100 µM | RPMI-8226 > 100 µM | SK-MEL-2 > 100 µM | SK-OV-3 > 100 µM | HOP-62 > 100 µM | SK-MEL-5 > 100 µM | MOLT-4 > 100 µM | SF-539 > 100 µM | OVCAR-5 > 100 µM | PC-3 > 100 µM | NCI-H23 > 100 µM | MCF7 > 100 µM | UACC-62 > 100 µM | TK-10 > 100 µM | MDA-MB-231 > 100 µM

CCOC(=O)c1c(C)cc(=O)n2c1[nH]c1ccccc12
inactive: HCT-116 57.1 µM | HT-29 > 100 µM | HOP-92 > 100 µM | OVCAR-3 > 100 µM | SK-MEL-2 > 100 µM | SK-OV-3 > 100 µM | SK-MEL-5 > 100 µM | MOLT-4 > 100 µM | SF-539 31 µM | OVCAR-5 > 100 µM | PC-3 > 100 µM | NCI-H23 > 100 µM | MCF7 > 100 µM | UACC-62 > 100 µM | TK-10 99.3 µM | A498 40.3 µM | MDA-MB-231 36.6 µM

CCOC(=O)CCC(NC(=O)OCc1ccccc1)C(=O)NC(CCC(=O)OCC)C(=O)NC(CCC(=O)OCC)C(=O)NNC(=O)OC(C)(C)C (configuration not stated)
inactive: HCT-116 > 100 µM | HT-29 > 100 µM | HOP-92 > 100 µM | RPMI-8226 > 100 µM | SK-MEL-2 > 100 µM | HOP-62 > 100 µM | SK-MEL-5 > 100 µM | MOLT-4 > 100 µM | OVCAR-5 > 100 µM | PC-3 > 100 µM | NCI-H23 > 100 µM | MCF7 > 100 µM | UACC-62 > 100 µM | TK-10 > 100 µM | A498 > 100 µM | MDA-MB-231 > 100 µM

O=c1c2cc([N+](=O)[O-])ccc2n2n1Cc1ccccc1CC2
inactive: HCT-116 > 100 µM | HT-29 > 100 µM | OVCAR-3 > 100 µM | RPMI-8226 > 100 µM | SK-MEL-2 > 100 µM | SK-OV-3 > 100 µM | HOP-62 > 100 µM | SK-MEL-5 > 100 µM | MOLT-4 > 100 µM | SF-539 > 100 µM | OVCAR-5 > 100 µM | PC-3 > 100 µM | NCI-H23 > 100 µM | MCF7 > 100 µM | UACC-62 > 100 µM | TK-10 38.1 µM | A498 > 100 µM | MDA-MB-231 > 100 µM

CCc1c(-c2ccc(OC)cc2)c(=O)oc2cc(O)ccc12
inactive: HCT-116 36.5 µM | HT-29 40.7 µM | HOP-92 75.9 µM | OVCAR-3 28.4 µM | RPMI-8226 18.6 µM | SK-MEL-2 > 100 µM | HOP-62 54 µM | SK-MEL-5 14.8 µM | MOLT-4 16 µM | SF-539 44.1 µM | OVCAR-5 > 100 µM | PC-3 24.7 µM | NCI-H23 49.1 µM | MCF7 32.7 µM | UACC-62 19.4 µM | A498 22.6 µM | MDA-MB-231 57.5 µM

OC(CCN1CCN(CCOC(c2ccccc2)c2ccccc2)CC1)c1ccc(Br)cc1 (configuration not stated)
inactive: HCT-116 11.2 µM | HT-29 4.27 µM | HOP-92 10.7 µM | OVCAR-3 12.6 µM | SK-MEL-2 12.3 µM | SK-OV-3 13.1 µM | HOP-62 15.1 µM | SK-MEL-5 3.53 µM | SF-539 12.5 µM | OVCAR-5 14.9 µM | PC-3 10.9 µM | NCI-H23 14 µM | MCF7 13.3 µM | UACC-62 10.6 µM | TK-10 13.7 µM | A498 3.72 µM | MDA-MB-231 11.7 µM

COC(=O)c1c(O)ccc2c1c1c(n2Cc2ccccc2)C(=O)c2ccccc2C1=O
inactive: HCT-116 14.2 µM | HT-29 9.23 µM | HOP-92 13 µM | OVCAR-3 16.7 µM | RPMI-8226 8.55 µM | SK-MEL-2 14 µM | SK-OV-3 16.1 µM | HOP-62 23.6 µM | SK-MEL-5 16.1 µM | MOLT-4 4.88 µM | SF-539 15.6 µM | OVCAR-5 20.9 µM | PC-3 13.7 µM | NCI-H23 15.3 µM | MCF7 12.1 µM | TK-10 17.1 µM | MDA-MB-231 16.2 µM
